± gives the expanded uncertainty stated by the source.
Conditions: Liquid, Capillary tube (Ostwald / Ubbelohde) method

C1CCCCC1 [cyclohexane]
viscosity (303.1 K, 2930 kPa): 0.852 ± 0.029 mPa·s | viscosity (305.1 K, 960 kPa): 0.801 ± 0.026 mPa·s | viscosity (305.2 K, 140 kPa): 0.796 ± 0.027 mPa·s | viscosity (305.2 K, 1960 kPa): 0.819 ± 0.027 mPa·s | viscosity (305.2 K, 3940 kPa): 0.839 ± 0.028 mPa·s | viscosity (313.8 K, 2920 kPa): 0.721 ± 0.025 mPa·s | viscosity (323.7 K, 150 kPa): 0.601 ± 0.02 mPa·s | viscosity (323.7 K, 1990 kPa): 0.614 ± 0.02 mPa·s | viscosity (323.7 K, 4000 kPa): 0.631 ± 0.021 mPa·s | viscosity (324 K, 1020 kPa): 0.616 ± 0.021 mPa·s | viscosity (348.9 K, 140 kPa): 0.432 ± 0.015 mPa·s | viscosity (348.9 K, 990 kPa): 0.44 ± 0.015 mPa·s | viscosity (348.9 K, 2080 kPa): 0.445 ± 0.014 mPa·s | viscosity (348.9 K, 3030 kPa): 0.451 ± 0.015 mPa·s | viscosity (348.9 K, 3930 kPa): 0.449 ± 0.015 mPa·s | viscosity (373.7 K, 970 kPa): 0.331 ± 0.011 mPa·s | viscosity (373.7 K, 2020 kPa): 0.336 ± 0.011 mPa·s | viscosity (373.7 K, 2930 kPa): 0.34 ± 0.011 mPa·s | viscosity (373.7 K, 3960 kPa): 0.346 ± 0.011 mPa·s | viscosity (398.1 K, 2000 kPa): 0.262 ± 0.0085 mPa·s | viscosity (398.1 K, 4010 kPa): 0.27 ± 0.0088 mPa·s | viscosity (398.2 K, 960 kPa): 0.258 ± 0.0084 mPa·s | viscosity (398.2 K, 2940 kPa): 0.266 ± 0.0087 mPa·s | viscosity (422.4 K, 960 kPa): 0.204 ± 0.0066 mPa·s | viscosity (422.5 K, 1970 kPa): 0.209 ± 0.0068 mPa·s | viscosity (422.5 K, 2960 kPa): 0.214 ± 0.007 mPa·s | viscosity (422.5 K, 3960 kPa): 0.216 ± 0.007 mPa·s | viscosity (447.5 K, 1010 kPa): 0.165 ± 0.0054 mPa·s | viscosity (447.6 K, 2040 kPa): 0.165 ± 0.0055 mPa·s | viscosity (447.7 K, 3010 kPa): 0.17 ± 0.0056 mPa·s | viscosity (447.7 K, 4000 kPa): 0.174 ± 0.0057 mPa·s | viscosity (473.3 K, 3000 kPa): 0.138 ± 0.0046 mPa·s | viscosity (473.4 K, 1930 kPa): 0.131 ± 0.0044 mPa·s | viscosity (473.4 K, 3930 kPa): 0.139 ± 0.0046 mPa·s | viscosity (497.9 K, 3050 kPa): 0.106 ± 0.0036 mPa·s | viscosity (498.1 K, 3980 kPa): 0.11 ± 0.0037 mPa·s | viscosity (498.2 K, 3020 kPa): 0.106 ± 0.0036 mPa·s | viscosity (498.3 K, 4020 kPa): 0.11 ± 0.0037 mPa·s | viscosity (523 K, 3050 kPa): 0.0791 ± 0.0028 mPa·s | viscosity (523 K, 3970 kPa): 0.0856 ± 0.003 mPa·s

CCCCCCCCCC [decane]
viscosity (303.1 K, 3970 kPa): 0.828 ± 0.028 mPa·s | viscosity (303.2 K, 960 kPa): 0.8 ± 0.026 mPa·s | viscosity (303.2 K, 3010 kPa): 0.814 ± 0.027 mPa·s | viscosity (303.3 K, 150 kPa): 0.788 ± 0.026 mPa·s | viscosity (303.3 K, 2000 kPa): 0.808 ± 0.027 mPa·s | viscosity (323.7 K, 1120 kPa): 0.617 ± 0.02 mPa·s | viscosity (323.7 K, 1990 kPa): 0.628 ± 0.021 mPa·s | viscosity (323.7 K, 3010 kPa): 0.625 ± 0.02 mPa·s | viscosity (323.8 K, 140 kPa): 0.606 ± 0.02 mPa·s | viscosity (323.8 K, 3960 kPa): 0.631 ± 0.021 mPa·s | viscosity (348.9 K, 140 kPa): 0.459 ± 0.015 mPa·s | viscosity (348.9 K, 1050 kPa): 0.465 ± 0.015 mPa·s | viscosity (348.9 K, 2090 kPa): 0.469 ± 0.015 mPa·s | viscosity (348.9 K, 2930 kPa): 0.475 ± 0.015 mPa·s | viscosity (348.9 K, 3950 kPa): 0.481 ± 0.016 mPa·s | viscosity (373.7 K, 130 kPa): 0.365 ± 0.012 mPa·s | viscosity (373.7 K, 960 kPa): 0.368 ± 0.012 mPa·s | viscosity (373.7 K, 2040 kPa): 0.373 ± 0.012 mPa·s | viscosity (373.7 K, 2890 kPa): 0.376 ± 0.012 mPa·s | viscosity (373.7 K, 3960 kPa): 0.381 ± 0.013 mPa·s | viscosity (398.1 K, 3940 kPa): 0.312 ± 0.01 mPa·s | viscosity (398.2 K, 140 kPa): 0.295 ± 0.0097 mPa·s | viscosity (398.2 K, 990 kPa): 0.299 ± 0.0097 mPa·s | viscosity (398.2 K, 2030 kPa): 0.304 ± 0.0098 mPa·s | viscosity (398.2 K, 2910 kPa): 0.309 ± 0.01 mPa·s | viscosity (423.4 K, 2960 kPa): 0.254 ± 0.0083 mPa·s | viscosity (423.4 K, 3940 kPa): 0.258 ± 0.0084 mPa·s | viscosity (423.5 K, 950 kPa): 0.247 ± 0.008 mPa·s | viscosity (423.5 K, 1060 kPa): 0.246 ± 0.008 mPa·s | viscosity (423.5 K, 2110 kPa): 0.251 ± 0.0081 mPa·s | viscosity (447.7 K, 1060 kPa): 0.206 ± 0.0067 mPa·s | viscosity (447.7 K, 1990 kPa): 0.209 ± 0.0068 mPa·s | viscosity (447.7 K, 2960 kPa): 0.212 ± 0.0069 mPa·s | viscosity (447.7 K, 3990 kPa): 0.216 ± 0.007 mPa·s | viscosity (473.4 K, 2150 kPa): 0.174 ± 0.0057 mPa·s | viscosity (473.4 K, 2920 kPa): 0.177 ± 0.0058 mPa·s | viscosity (473.4 K, 3990 kPa): 0.18 ± 0.0059 mPa·s | viscosity (498.2 K, 3890 kPa): 0.152 ± 0.005 mPa·s | viscosity (498.3 K, 2090 kPa): 0.146 ± 0.0048 mPa·s | viscosity (498.3 K, 3060 kPa): 0.15 ± 0.0049 mPa·s | viscosity (523 K, 3970 kPa): 0.129 ± 0.0043 mPa·s | viscosity (523.1 K, 1060 kPa): 0.118 ± 0.004 mPa·s | viscosity (523.1 K, 1940 kPa): 0.122 ± 0.0041 mPa·s | viscosity (523.1 K, 3000 kPa): 0.126 ± 0.0042 mPa·s | viscosity (547.9 K, 1070 kPa): 0.0957 ± 0.0033 mPa·s | viscosity (547.9 K, 1980 kPa): 0.1 ± 0.0034 mPa·s | viscosity (547.9 K, 2940 kPa): 0.105 ± 0.0035 mPa·s | viscosity (547.9 K, 4000 kPa): 0.108 ± 0.0036 mPa·s | viscosity (573.6 K, 1930 kPa): 0.0796 ± 0.0028 mPa·s | viscosity (573.7 K, 2970 kPa): 0.0855 ± 0.003 mPa·s | viscosity (573.8 K, 4030 kPa): 0.091 ± 0.0031 mPa·s | viscosity (598.4 K, 4020 kPa): 0.0745 ± 0.0026 mPa·s | viscosity (598.5 K, 2090 kPa): 0.0619 ± 0.0023 mPa·s | viscosity (598.5 K, 2980 kPa): 0.0696 ± 0.0025 mPa·s
